Patent EP0071892A2, “Phospholipid derivatives, process for preparation thereof and pharmaceutical composition of the same” (priority 1981, dated 1983)
Like-named read-outs stand apart in the source and are kept apart here.

Experiments:
[1] = test system: Fibrosarcoma Meth A; assay: Test Method A: intradermally inoculated Meth A tumor in mice, intratumoral injection of test compound, tumor growth inhibition; type: in vivo, BALB/c mice; details: 100 µg/mouse intratumorally once daily from Day 1 to Day 4 postimplant; for Mean of two diameters of the growing tumor: 1 x 10^5 Meth A cells intradermally; for responders at 0.1 mg / inhibition in vivo at 0.1 mg: Meth-A; for responders at 0.1 mg: read-out: Ratio of tumor free mice [Number of tumor free mice/ Number of mice used as a group] (converted); for inhibition in vivo at 0.1 mg: Mus musculus, read-out: Tumor growth inhibition (%) [(1-T/c)x100]
Procedure: Groups of six female BALB/c mice, aged 12 weeks and weighing 19 - 21 g were used.
Fib,rosarcoma Meth A (hereinafter referred to as Meth A) was successively transferred every 7 days into BALB/c mice by intraperitoneal inoculation of the ascites cells thereof and the Meth A in the ascites cells as harvested 6 days after the inoculation was used as tumor cells.
Each of the BALB/c mice was inoculated intradermally with 1 x 10^5 Meth A cells in 0.05 ml Hanks solution.
Test compound was dissolved in 0.5% methylcellulose saline solution, and was intratumorally injected to each of the mice in doses of 100 µg/mouse once daily from Day 1 to Day 4 postimplant.
The control group was given with a vehicle alone in the same way.
The antitumor effectiveness of the test compound was estimated by tumor growth inhibition (1-T/C). • T: Mean diameter of the growing tumor of the medicated group • C: Mean diameter of the growing tumor of the control group

[2] = test system: Fibrosarcoma Meth A; assay: Test Method B: intrapleurally inoculated Meth A tumor in mice, injection into pleural cavity, mean survival time; type: in vivo, BALB/c mice; parameters: dose or concentration left out as unconfirmed; details: for Anti-tumor activity (%) *d: comparison of mean survival time of medicated group (T) and control group (C), into pleural cavity three times; for Mean survival time: into pleural cavity three times (before 14 days, after 1 hour and after 3 days of tumor implantation), 5 x 10^5 Meth A cells intrapleurally
Procedure: Groups of eight female BALB/c mice, aged 8-9 weeks and weighing 18.0-22.5 g were used.
Fibrosarcoma Meth A (hereinafter referred to as Meth A) was successively transferred every 7 days into BALB/c mice by intraperitoneal inoculation of the ascites cells thereof and the Meth A in the ascites cells as harvested 6 or 7 days after the inoculation was used as tumor cells.
Each of the BALB/c mice was inoculated intrapleurally with 5 x 10^5 Meth A cells in 0.1 ml Hanks solution.
Test compound was dissolved in phosphate buffer saline solution, and was injected into pleural cavity to each of the mice in doses of 100 pg/0.05 ml/mouse three times, i.e. before 14 days, after 1 hour and after 3 days of tumor implantation.
The antitumor activity of the test compound was estimated by comparing mean survival time of the two groups. • T : Mean survival time of the medicated group • C : Mean survival time of the control group

CCCCCCCCCCCCCCCCCCOCC(COP(=O)(O)OCCN1CCN(C)CC1)OCC (racemic) [3-(1), (rac)-l-O-Octadecyl-2-0-ethyl-glycerol-3-[2-(4-methyl-l-piperazinyl)ethyl]phosphate]
Mean of two diameters of the growing tumor ([1]; Day 14): 0 mm | Ratio of tumor free mice [Number of tumor free mice/ Number of mice used as a group] ([1]; Day 21): 6/6 | Mean of two diameters of the growing tumor ([1]; Day 21): 0 mm | responders at 0.1 mg ([1]; Day 14): 100% | inhibition in vivo at 0.1 mg ([1]; Day 14): 100% | inhibition in vivo at 0.1 mg ([1]; Day 21): 100% | Anti-tumor activity (%) *d [2]: 342% | Mean survival time [2]: 20.5 days

CCCCCCCCCCCCCCCCCCOCC(COP(=O)([O-])OCC[n+]1ccccc1)OC (racemic) [Example 1, (rac)-l-O-octadecyl-2-0-methyl-glycerol-3-[2-(1-pyridinio)ethyl]phosphate]
Mean of two diameters of the growing tumor ([1]; Day 14): 0 mm | Ratio of tumor free mice [Number of tumor free mice/ Number of mice used as a group] ([1]; Day 21): 6/6 | Mean of two diameters of the growing tumor ([1]; Day 21): 0 mm | responders at 0.1 mg ([1]; Day 14): 100% | inhibition in vivo at 0.1 mg ([1]; Day 14): 100% | inhibition in vivo at 0.1 mg ([1]; Day 21): 100% | Anti-tumor activity (%) *d [2]: 367% | Mean survival time [2]: 22.0 days
